# Target: T1, Nav1.7 (or SCN9A) channel; HEK cells stably transfected with hSCN9A (Homo sapiens, UniProt Q15858)
# T1 construct: expressed in transfected cells
# Test: Nav1.7 block, PatchXpress 7000 automated whole-cell voltage clamp, estimated IC50 (EIC50)
# Format: cell-based
# Details: PatchXpress platform; hSCN9A HEK cells held at V1/2 of inactivation; estimated IC50
# T1 sequence (Q15858 whole entry): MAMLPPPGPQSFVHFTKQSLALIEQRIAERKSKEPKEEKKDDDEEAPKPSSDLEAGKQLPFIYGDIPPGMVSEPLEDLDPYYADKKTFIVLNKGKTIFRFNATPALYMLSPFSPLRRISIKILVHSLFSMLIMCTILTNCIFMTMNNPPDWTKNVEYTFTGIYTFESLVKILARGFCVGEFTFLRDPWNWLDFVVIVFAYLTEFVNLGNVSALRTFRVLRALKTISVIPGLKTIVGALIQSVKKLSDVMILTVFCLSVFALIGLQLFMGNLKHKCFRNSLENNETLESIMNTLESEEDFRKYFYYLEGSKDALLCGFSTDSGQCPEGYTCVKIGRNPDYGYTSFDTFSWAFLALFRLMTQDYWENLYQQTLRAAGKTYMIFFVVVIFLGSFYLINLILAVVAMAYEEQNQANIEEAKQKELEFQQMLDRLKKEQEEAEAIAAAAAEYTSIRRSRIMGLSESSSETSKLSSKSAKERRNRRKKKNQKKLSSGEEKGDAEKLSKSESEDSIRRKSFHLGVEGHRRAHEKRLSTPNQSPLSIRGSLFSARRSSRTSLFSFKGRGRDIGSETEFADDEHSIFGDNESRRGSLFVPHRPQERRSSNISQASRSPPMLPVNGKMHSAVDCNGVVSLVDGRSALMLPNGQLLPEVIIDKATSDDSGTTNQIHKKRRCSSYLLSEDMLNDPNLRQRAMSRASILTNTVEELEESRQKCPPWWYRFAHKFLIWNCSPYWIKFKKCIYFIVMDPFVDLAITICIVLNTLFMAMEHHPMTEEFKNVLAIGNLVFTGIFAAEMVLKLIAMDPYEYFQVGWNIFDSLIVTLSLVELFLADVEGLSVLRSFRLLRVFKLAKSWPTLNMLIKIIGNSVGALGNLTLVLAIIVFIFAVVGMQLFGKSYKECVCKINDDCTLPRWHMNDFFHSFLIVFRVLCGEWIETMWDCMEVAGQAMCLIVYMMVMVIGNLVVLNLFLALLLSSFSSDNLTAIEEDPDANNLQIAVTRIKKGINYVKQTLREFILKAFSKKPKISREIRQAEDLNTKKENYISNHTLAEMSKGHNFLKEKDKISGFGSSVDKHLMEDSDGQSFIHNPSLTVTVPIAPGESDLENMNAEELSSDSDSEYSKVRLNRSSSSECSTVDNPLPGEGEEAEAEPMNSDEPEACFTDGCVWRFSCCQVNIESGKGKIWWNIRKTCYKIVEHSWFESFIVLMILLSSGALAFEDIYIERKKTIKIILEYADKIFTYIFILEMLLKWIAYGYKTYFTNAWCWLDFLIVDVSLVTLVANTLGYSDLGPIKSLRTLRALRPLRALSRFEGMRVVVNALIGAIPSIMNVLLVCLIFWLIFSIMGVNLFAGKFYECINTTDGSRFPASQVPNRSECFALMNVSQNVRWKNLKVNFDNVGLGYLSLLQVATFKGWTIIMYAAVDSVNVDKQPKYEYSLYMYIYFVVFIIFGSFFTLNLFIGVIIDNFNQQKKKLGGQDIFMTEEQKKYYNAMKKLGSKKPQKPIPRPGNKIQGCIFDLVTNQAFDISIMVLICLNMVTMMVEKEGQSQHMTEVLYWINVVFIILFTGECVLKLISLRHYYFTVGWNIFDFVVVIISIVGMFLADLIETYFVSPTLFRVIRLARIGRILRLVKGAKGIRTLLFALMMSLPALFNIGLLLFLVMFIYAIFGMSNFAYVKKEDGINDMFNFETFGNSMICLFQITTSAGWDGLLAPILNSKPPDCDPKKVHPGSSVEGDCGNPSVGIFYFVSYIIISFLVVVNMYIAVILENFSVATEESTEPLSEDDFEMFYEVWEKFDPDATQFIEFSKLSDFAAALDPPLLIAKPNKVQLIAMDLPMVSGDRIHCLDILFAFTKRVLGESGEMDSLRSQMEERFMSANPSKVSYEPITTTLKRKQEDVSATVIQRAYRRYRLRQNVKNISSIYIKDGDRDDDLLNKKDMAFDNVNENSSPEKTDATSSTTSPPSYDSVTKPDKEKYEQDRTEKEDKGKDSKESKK
row,IC50 [nM],SMILES
1,1130,"Cc1c(Cl)ccc(Oc2ccc(S(=O)(=O)Nc3nccs3)cc2C#N)c1-c1nnco1 [Example 197, 4-(4-chloro-3-methyl-2-[1,3,4]oxadiazol-2-yl-phenoxy)-3-cyano-N-thiazol-2-yl-benzenesulfonamide]"
2,2250,"N#Cc1cc(S(=O)(=O)Nc2nncs2)ccc1Oc1ccccc1-c1ccccc1 [Example 104, 4-(biphenyl-2-yloxy)-3-cyano-N-1,3,4-thiadiazol-2-ylbenzenesulfonamide]"
3,750,"N#Cc1cc(S(=O)(=O)Nc2nccs2)ccc1Oc1cnn(Cc2ccc(Cl)cc2)c1 [Example 167, 4-(1-(4-chlorobenzyl)-1H-pyrazol-4-yloxy)-3-cyano-N-(thiazol-2-yl)benzenesulfonamide]"
4,2410,"O=S(=O)(Nc1nccs1)c1ccc(Oc2nc(Cc3ccc(Cl)cc3)cs2)cc1F [Example 214, 4-[4-(4-chloro-benzyl)-thiazol-2-yloxy]-2-fluoro-N-thiazol-2-yl-benzenesulfonamide]"
5,590,"O=S(=O)(Nc1nccs1)c1ccc(Oc2ccc(-c3ccccc3)cc2)cc1F [Example 209, 4-(biphenyl-4-yloxy)-2-fluoro-N-(thiazol-2-yl)benzenesulfonamide]"
6,470,"Cc1cc(Oc2ccccc2-c2ccccc2)ccc1S(=O)(=O)Nc1ncns1 [Example 261, 4-(biphenyl-2-yloxy)-2-methyl-N-1,2,4-thiadiazol-5-ylbenzenesulfonamide]"

# Same assay, conditions: estimated IC50; hSCN9A HEK cells, PatchXpress platform; Examples 283-814
row,IC50 [nM],SMILES
1,25,"Cn1nccc1-c1cc(C2CC2)ccc1Oc1ccc(S(=O)(=O)Nc2nccs2)cc1F [Example 309, 4-[4-Cyclopropyl-2-(1-methyl-1H-pyrazol-5-yl)phenoxy]-3-fluoro-N-1,3-thiazol-2-ylbenzenesulfonamide]"
2,1200,"CCc1cc(-n2cccn2)ccc1Oc1ccc(S(=O)(=O)Nc2nccs2)cc1C#N [Example 489, 3-cyano-4-[2-ethyl-4-(1H-pyrazol-1-yl)phenoxy]-N-1,3-thiazol-2-ylbenzenesulfonamide]"
3,1700,"Cn1nc(C(F)(F)F)cc1-c1ccc(Oc2ccc(S(=O)(=O)Nc3ncc(F)s3)cc2F)cc1 [Example 609, 3-fluoro-N-(5-fluoro-1,3-thiazol-2-yl)-4-{4-[1-methyl-3-(trifluoromethyl)-1H-pyrazol-5-yl]phenoxy}benzenesulfonamide]"
4,50,"N#Cc1cc(S(=O)(=O)Nc2nccs2)ccc1Oc1ccc(-c2cc(C(F)(F)F)nn2CCO)cc1 [Example 382, 3-cyano-4-{4-[1-(2-hydroxyethyl)-3-(trifluoromethyl)-1H-pyrazol-5-yl]phenoxy}-N-1,3-thiazol-2-ylbenzenesulfonamide]"
5,4900,"CCn1nc(C(F)(F)F)cc1-c1ccc(Oc2ccc(S(=O)(=O)Nc3ncc(F)cc3F)cc2C#N)cc1 [Example 311, 3-cyano-N-(3,5-difluoropyridin-2-yl)-4-{4-[1-ethyl-3-(trifluoromethyl)-1H-pyrazol-5-yl]phenoxy}benzenesulfonamide]"
6,970,"Cn1nc(C(F)(F)F)cc1-c1cc(F)c(F)c(Oc2ccc(S(=O)(=O)Nc3nccs3)cc2C#N)c1 [Example 472, 3-cyano-4-{2,3-difluoro-5-[1-methyl-3-(trifluoromethyl)-1H-pyrazol-5-yl]phenoxy}-N-1,3-thiazol-2-ylbenzenesulfonamide]"
7,2.7,"N#Cc1cc(S(=O)(=O)Nc2ncns2)ccc1Oc1ccc(Cl)cc1-c1ccnc(N2CCNCC2)c1 [Example 736, 4-[4-chloro-2-(2-piperazin-1-ylpyridin-4-yl)phenoxy]-3-cyano-N-1,2,4-thiadiazol-5-ylbenzenesulfonamide]"
8,24000,"N#Cc1cc(S(=O)(=O)Nc2ncccc2F)ccc1Oc1ccccc1-c1ccccc1 [Example 420, 4-(biphenyl-2-yloxy)-3-cyano-N-(3-fluoropyridin-2-yl)benzenesulfonamide]"
9,88,"CCn1nc(C(F)(F)F)cc1-c1ccc(Oc2ccc(S(=O)(=O)Nc3ncns3)cc2C#N)cc1 [Example 500, 3-cyano-4-{4-[1-ethyl-3-(trifluoromethyl)-1H-pyrazol-5-yl]phenoxy}-N-1,2,4-thiadiazol-5-ylbenzenesulfonamide]"
10,5500,"COc1cc(Oc2ccc(S(=O)(=O)Nc3ccc(F)cn3)cc2C#N)ccc1-n1ccnc1C [Example 578, 3-cyano-N-(5-fluoropyridin-2-yl)-4-[3-methoxy-4-(2-methyl-1H-imidazol-1-yl)phenoxy]benzenesulfonamide]"
11,>1000,"Cn1nccc1-c1ccc(Oc2ccc(S(=O)(=O)Nc3nccs3)cc2C#N)cn1 [Example 645, 3-cyano-4-{[6-(1-methyl-1H-pyrazol-5-yl)pyridin-3-yl]oxy}-N-1,3-thiazol-2-ylbenzenesulfonamide]"
12,71,"N#Cc1cc(S(=O)(=O)Nc2nccs2)ccc1Oc1ccc(-c2cc(C(F)(F)F)nn2CCCF)cc1F [Example 551, 3-cyano-4-{2-fluoro-4-[1-(3-fluoropropyl)-3-(trifluoromethyl)-1H-pyrazol-5-yl]phenoxy}-N-1,3-thiazol-2-ylbenzenesulfonamide]"
13,6900,"N#Cc1cc(S(=O)(=O)Nc2ccc(F)cn2)ccc1Oc1ccccc1-c1nnco1 [Example 580, 3-cyano-N-(5-fluoropyridin-2-yl)-4-[2-(1,3,4-oxadiazol-2-yl)phenoxy]benzenesulfonamide]"
14,75,"Cn1nccc1-c1cc(F)ccc1Oc1cc(F)c(S(=O)(=O)Nc2ncns2)cc1Cl [Example 621, 5-chloro-2-fluoro-4-(4-fluoro-2-(1-methyl-1H-pyrazol-5-yl)phenoxy)-N-(1,2,4-thiadiazol-5-yl)benzenesulfonamide]"
15,>1000,"CCn1nc(C(F)(F)F)cc1-c1cccc(Oc2ccc(S(=O)(=O)Nc3ccc(F)cn3)cc2C#N)c1 [Example 368, 3-cyano-4-{3-[1-ethyl-3-(trifluoromethyl)-1H-pyrazol-5-yl]phenoxy}-N-(5-fluoropyridin-2-yl)benzenesulfonamide]"
16,46,"O=S(=O)(Nc1ccc(F)cn1)c1cc(Cl)c(Oc2ccc(Cl)cc2C2CCNCC2)cc1F [Example 623, 5-chloro-4-(4-chloro-2-piperidin-4-ylphenoxy)-2-fluoro-N-(5-fluoropyridin-2-yl)benzenesulfonamide]"

# Same assay, conditions: estimated IC50; hSCN9A HEK cells, PatchXpress platform; Examples 815-1040
row,IC50 [nM],SMILES
1,230,"O=S(=O)(Nc1ncns1)c1ccc(Oc2cc(F)c(Cl)cc2-c2ccnnc2)c(F)c1 [Example 930, 4-(4-chloro-5-fluoro-2-pyridazin-4-ylphenoxy)-3-fluoro-N-1,2,4-thiadiazol-5-ylbenzenesulfonamide]"
2,7,"O=S(=O)(Nc1ncns1)c1cc(F)c(Oc2ccc(Cl)cc2-c2ccnnc2)cc1F [Example 879, 4-(4-chloro-2-pyridazin-4-ylphenoxy)-2,5-difluoro-N-1,2,4-thiadiazol-5-ylbenzenesulfonamide]"
3,>10000,"Cn1nccc1-c1cc(Cl)ccc1Oc1ccc(S(=O)(=O)Nc2cc[nH]n2)cc1C#N [Example 922, 4-[4-chloro-2-(1-methyl-1H-pyrazol-5-yl)phenoxy]-3-cyano-N-1H-pyrazol-3-ylbenzenesulfonamide]"
4,120,"Cn1nccc1-c1cc(Cl)ccc1Oc1ncc(S(=O)(=O)Nc2ncns2)cc1Cl [Example 927, 5-chloro-6-[4-chloro-2-(1-methyl-1H-pyrazol-5-yl)phenoxy]-N-1,2,4-thiadiazol-5-ylpyridine-3-sulfonamide]"

# — US8541588B2, “Sulfonamide derivatives” (Pfizer Limited, priority 2009, dated 2013)
